Results taken from the supplement of paper PMC13207355.

Columns and labels:
Details in all cases: exposure time: 72 h
[1] = test system: FT3469 (normal neural stem cell line); assay: phenotypic distance (Euclidean, principal components) from DMSO controls (arbitrary units); higher = stronger morphological change
[2] = test system: E21 (patient-derived glioblastoma stem cells of mesenchymal subtype); assay: as above
[3] = test system: E34 (patient-derived glioblastoma stem cells of proneural subtype); assay: as above
[4] = test system: E28 (patient-derived glioblastoma stem cells of classical subtype); assay: as above
[5] = test system: E13 (patient-derived glioblastoma stem cells of classical subtype); assay: as above
[6] = test system: E31 (patient-derived glioblastoma stem cells of proneural subtype); assay: as above
[7] = test system: E57 (patient-derived glioblastoma stem cells of mesenchymal subtype); assay: as above
[8] = test system: FT3469; assay: surviving fraction (nuclei count normalised to DMSO); higher = more cells surviving (less toxic)
[9] = test system: E21; assay: as above
[10] = test system: E34; assay: as above
[11] = test system: E28; assay: as above
[12] = test system: E13; assay: as above
[13] = test system: E31; assay: as above
[14] = test system: E57; assay: as above
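Wherever phenotypic distance (Euclidean, principal components) from DMSO controls is given: cell Painting imaging in 384-well plates, CellProfiler features reduced to at least 20 principal components, Euclidean distance versus same-plate DMSO vehicle wells (0.1% v/v), median over six images per well.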
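Wherever surviving fraction (nuclei count normalised to DMSO) is given: nuclei counted by high-content imaging of Hoechst-stained cells in laminin-coated 384-well plates, relative to 0.1% DMSO vehicle wells, with staurosporine as cell-death control.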

OCCN1CCN(CCCN2c3ccccc3Sc3ccc(Cl)cc32)CC1 [Perphenazine]
Details	phenotypic distance	surviving fraction
[1], 4.1 nM	0.72	–
[1], 12.3 nM	0.971	–
[1], 37 nM	0.546	–
[1], 111.1 nM	0.602	–
[1], 333.3 nM	0.84	–
[1], 1000 nM	0.79	–
[1], 3000 nM	1.58	–
[2], 4.1 nM	0.988	–
[2], 12.3 nM	0.761	–
[2], 37 nM	0.693	–
[2], 111.1 nM	1.08	–
[2], 333.3 nM	0.995	–
[2], 1000 nM	0.917	–
[2], 3000 nM	2.66	–
[3], 4.1 nM	1.05	–
[3], 12.3 nM	0.866	–
[3], 37 nM	0.902	–
[3], 111.1 nM	2.15	–
[3], 333.3 nM	1.04	–
[3], 1000 nM	1.51	–
[3], 3000 nM	1.42	–
[4], 4.1 nM	0.747	–
[4], 12.3 nM	0.879	–
[4], 37 nM	0.787	–
[4], 111.1 nM	0.725	–
[4], 333.3 nM	0.749	–
[4], 1000 nM	0.938	–
[4], 3000 nM	1.93	–
[5], 4.1 nM	2.64	–
[5], 12.3 nM	2.33	–
[5], 37 nM	3.22	–
[5], 111.1 nM	0.78	–
[5], 333.3 nM	1.14	–
[5], 1000 nM	3.07	–
[5], 3000 nM	3.61	–
[6], 4.1 nM	1.23	–
[6], 12.3 nM	0.866	–
[6], 37 nM	0.873	–
[6], 111.1 nM	1.86	–
[6], 333.3 nM	1.75	–
[6], 1000 nM	2.15	–
[6], 3000 nM	3.18	–
[7], 4.1 nM	1.04	–
[7], 12.3 nM	0.836	–
[7], 37 nM	0.782	–
[7], 111.1 nM	0.979	–
[7], 333.3 nM	0.789	–
[7], 1000 nM	1.66	–
[7], 3000 nM	2.41	–
[8], 4.1 nM	–	1.11
[8], 12.3 nM	–	0.955
[8], 37 nM	–	1.01
[8], 111.1 nM	–	1.04
[8], 333.3 nM	–	0.866
[8], 1000 nM	–	0.938
[8], 3000 nM	–	1.03
[9], 4.1 nM	–	0.925
[9], 12.3 nM	–	1.06
[9], 37 nM	–	1.03
[9], 111.1 nM	–	1.05
[9], 333.3 nM	–	1.11
[9], 1000 nM	–	0.954
[9], 3000 nM	–	0.73
[10], 4.1 nM	–	0.951
[10], 12.3 nM	–	1.05
[10], 37 nM	–	1.1
[10], 111.1 nM	–	1.05
[10], 333.3 nM	–	0.994
[10], 1000 nM	–	1.19
[10], 3000 nM	–	0.986
[11], 4.1 nM	–	1.09
[11], 12.3 nM	–	1.12
[11], 37 nM	–	1.07
[11], 111.1 nM	–	1.19
[11], 333.3 nM	–	0.953
[11], 1000 nM	–	1.09
[11], 3000 nM	–	0.848
[12], 4.1 nM	–	0.93
[12], 12.3 nM	–	0.94
[12], 37 nM	–	0.849
[12], 111.1 nM	–	0.98
[12], 333.3 nM	–	0.964
[12], 1000 nM	–	1.05
[12], 3000 nM	–	0.837
[13], 4.1 nM	–	0.97
[13], 12.3 nM	–	1.07
[13], 37 nM	–	1.08
[13], 111.1 nM	–	1.14
[13], 333.3 nM	–	1.18
[13], 1000 nM	–	1.24
[13], 3000 nM	–	0.912
[14], 4.1 nM	–	0.964
[14], 12.3 nM	–	0.957
[14], 37 nM	–	1
[14], 111.1 nM	–	1.1
[14], 333.3 nM	–	1.15
[14], 1000 nM	–	1.12
[14], 3000 nM	–	1.13

COc1cc(/C=C/C(=O)N2CCC=CC2=O)cc(OC)c1OC [Piperlongumine]
Details	phenotypic distance	surviving fraction
[1], 4.1 nM	0.686	–
[1], 12.3 nM	0.732	–
[1], 37 nM	0.828	–
[1], 111.1 nM	0.586	–
[1], 333.3 nM	1.07	–
[1], 1000 nM	1.12	–
[1], 3000 nM	3.88	–
[2], 4.1 nM	1.09	–
[2], 12.3 nM	0.626	–
[2], 37 nM	0.701	–
[2], 111.1 nM	0.313	–
[2], 333.3 nM	0.682	–
[2], 1000 nM	3.07	–
[2], 3000 nM	9.28	–
[3], 4.1 nM	1.26	–
[3], 12.3 nM	0.821	–
[3], 37 nM	1.16	–
[3], 111.1 nM	0.677	–
[3], 333.3 nM	0.524	–
[3], 1000 nM	0.889	–
[3], 3000 nM	1.82	–
[4], 4.1 nM	0.727	–
[4], 12.3 nM	1.04	–
[4], 37 nM	0.697	–
[4], 111.1 nM	0.848	–
[4], 333.3 nM	0.74	–
[4], 1000 nM	2.27	–
[4], 3000 nM	5.12	–
[5], 4.1 nM	0.433	–
[5], 12.3 nM	0.675	–
[5], 37 nM	0.516	–
[5], 111.1 nM	2.59	–
[5], 333.3 nM	0.883	–
[5], 1000 nM	0.903	–
[5], 3000 nM	1.87	–
[6], 4.1 nM	1.19	–
[6], 12.3 nM	0.591	–
[6], 37 nM	0.723	–
[6], 111.1 nM	0.471	–
[6], 333.3 nM	1.14	–
[6], 1000 nM	1.51	–
[6], 3000 nM	10.8	–
[7], 4.1 nM	1.56	–
[7], 12.3 nM	0.849	–
[7], 37 nM	0.56	–
[7], 111.1 nM	0.314	–
[7], 333.3 nM	0.518	–
[7], 1000 nM	1.93	–
[7], 3000 nM	6.93	–
[8], 4.1 nM	–	1.05
[8], 12.3 nM	–	0.946
[8], 37 nM	–	0.901
[8], 111.1 nM	–	0.983
[8], 333.3 nM	–	0.881
[8], 1000 nM	–	0.866
[8], 3000 nM	–	0.7
[9], 4.1 nM	–	1.01
[9], 12.3 nM	–	0.979
[9], 37 nM	–	0.997
[9], 111.1 nM	–	0.997
[9], 333.3 nM	–	0.908
[9], 1000 nM	–	0.609
[9], 3000 nM	–	0.104
[10], 4.1 nM	–	0.873
[10], 12.3 nM	–	0.984
[10], 37 nM	–	1.11
[10], 111.1 nM	–	1.04
[10], 333.3 nM	–	1.06
[10], 1000 nM	–	0.863
[10], 3000 nM	–	0.559
[11], 4.1 nM	–	1.02
[11], 12.3 nM	–	1.1
[11], 37 nM	–	1.13
[11], 111.1 nM	–	0.988
[11], 333.3 nM	–	1.03
[11], 1000 nM	–	0.538
[11], 3000 nM	–	0.256
[12], 4.1 nM	–	0.958
[12], 12.3 nM	–	0.883
[12], 37 nM	–	1.05
[12], 111.1 nM	–	0.818
[12], 333.3 nM	–	0.823
[12], 1000 nM	–	0.88
[12], 3000 nM	–	0.767
[13], 4.1 nM	–	0.957
[13], 12.3 nM	–	1.09
[13], 37 nM	–	1.19
[13], 111.1 nM	–	1.12
[13], 333.3 nM	–	0.938
[13], 1000 nM	–	0.684
[13], 3000 nM	–	0.00892
[14], 4.1 nM	–	1.02
[14], 12.3 nM	–	0.96
[14], 37 nM	–	1.03
[14], 111.1 nM	–	1.03
[14], 333.3 nM	–	1.06
[14], 1000 nM	–	1
[14], 3000 nM	–	0.285

O=[N+]([O-])c1ccc2c(c1)S(=O)(=O)C=C2 [Stattic]
Details	phenotypic distance	surviving fraction
[1], 4.11523 nM	1.08	–
[1], 12.34567901 nM	1.39	–
[1], 37.037 nM	0.934	–
[1], 111.1111111 nM	1.86	–
[1], 333.333 nM	1.92	–
[1], 1000 nM	8.18	–
[1], 3000 nM	12.6	–
[2], 4.11523 nM	1.03	–
[2], 12.34567901 nM	1.19	–
[2], 37.037 nM	0.697	–
[2], 111.1111111 nM	1.45	–
[2], 333.333 nM	2.92	–
[2], 1000 nM	11.2	–
[2], 3000 nM	10.4	–
[3], 4.11523 nM	0.778	–
[3], 12.34567901 nM	2.75	–
[3], 37.037 nM	1.33	–
[3], 111.1111111 nM	1.29	–
[3], 333.333 nM	1.83	–
[3], 1000 nM	6.7	–
[3], 3000 nM	11.7	–
[4], 4.11523 nM	0.371	–
[4], 12.34567901 nM	0.758	–
[4], 37.037 nM	0.541	–
[4], 111.1111111 nM	0.984	–
[4], 333.333 nM	1.97	–
[4], 1000 nM	7.45	–
[4], 3000 nM	19.2	–
[5], 4.11523 nM	0.979	–
[5], 12.34567901 nM	0.957	–
[5], 37.037 nM	0.849	–
[5], 111.1111111 nM	1.68	–
[5], 333.333 nM	3.33	–
[5], 1000 nM	8.57	–
[5], 3000 nM	12.1	–
[6], 4.11523 nM	0.51	–
[6], 12.34567901 nM	0.69	–
[6], 37.037 nM	0.645	–
[6], 111.1111111 nM	1.51	–
[6], 333.333 nM	3.02	–
[6], 1000 nM	11.5	–
[6], 3000 nM	12.4	–
[7], 4.11523 nM	1.16	–
[7], 12.34567901 nM	1.21	–
[7], 37.037 nM	0.778	–
[7], 111.1111111 nM	1.69	–
[7], 333.333 nM	2.66	–
[7], 1000 nM	6.04	–
[7], 3000 nM	6.85	–
[8], 4.11523 nM	–	0.815
[8], 12.34567901 nM	–	0.831
[8], 37.037 nM	–	0.86
[8], 111.1111111 nM	–	0.73
[8], 333.333 nM	–	0.627
[8], 1000 nM	–	0.263
[8], 3000 nM	–	0.0263
[9], 4.11523 nM	–	0.828
[9], 12.34567901 nM	–	0.855
[9], 37.037 nM	–	0.849
[9], 111.1111111 nM	–	0.728
[9], 333.333 nM	–	0.517
[9], 1000 nM	–	0.0242
[9], 3000 nM	–	0.00527
[10], 4.11523 nM	–	0.907
[10], 12.34567901 nM	–	0.804
[10], 37.037 nM	–	0.719
[10], 111.1111111 nM	–	0.708
[10], 333.333 nM	–	0.568
[10], 1000 nM	–	0.223
[10], 3000 nM	–	0.00905
[11], 4.11523 nM	–	1.06
[11], 12.34567901 nM	–	0.809
[11], 37.037 nM	–	0.932
[11], 111.1111111 nM	–	0.745
[11], 333.333 nM	–	0.566
[11], 1000 nM	–	0.0457
[11], 3000 nM	–	0.00486
[12], 4.11523 nM	–	0.862
[12], 12.34567901 nM	–	0.789
[12], 37.037 nM	–	0.891
[12], 111.1111111 nM	–	0.753
[12], 333.333 nM	–	0.472
[12], 1000 nM	–	0.0609
[12], 3000 nM	–	0.0209
[13], 4.11523 nM	–	0.993
[13], 12.34567901 nM	–	0.809
[13], 37.037 nM	–	0.852
[13], 111.1111111 nM	–	0.608
[13], 333.333 nM	–	0.395
[13], 1000 nM	–	0.00296
[13], 3000 nM	–	0.00296
[14], 4.11523 nM	–	0.876
[14], 12.34567901 nM	–	0.843
[14], 37.037 nM	–	0.926
[14], 111.1111111 nM	–	0.848
[14], 333.333 nM	–	0.631
[14], 1000 nM	–	0.166
[14], 3000 nM	–	0.0847
